Measurements reported in PubChem BioAssay (NCI).
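Assay format: 96-well plates, 48-hour exposure. Here, GI50 denotes the concentration required for 50% inhibition of growth. TGI denotes the concentration required for complete inhibition of growth.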

Assays:
Assay in all cases: NCI anticancer screen, dose series, 48 h
[1] = system: SK-MEL-5 melanoma
[2] = system: HL-60(TB) leukemia
[3] = system: NCI-H522 lung
[4] = system: SR leukemia
[5] = system: SN12C renal
[6] = system: UACC-257 melanoma
[7] = system: DMS 114 small cell lung
[8] = system: HT29 colon
[9] = system: HCC-2998 colon

SMILES	TGI [1]	TGI [2]	TGI [3]	TGI [4]	TGI [5]	TGI [6]	TGI [7]	TGI [8]	TGI [9]	GI50 [1]	GI50 [2]	GI50 [3]	GI50 [4]	GI50 [5]	GI50 [6]	GI50 [8]	GI50 [9]
CC(=O)OCC1C(=O)OCC1C(=O)N1Cc2cc3ccccc3nc2C1 (configuration not stated)	23.1 µM	11.9 µM	2.23 µM	10.7 µM	14.4 µM	8.64 µM	29.8 µM	10.3 µM	22.9 µM	–	–	–	–	–	–	–	–
Sc1cccc2cccnc12	4.25 µM	7.21 µM	5.66 µM	> 56.1 µM	15.1 µM	12.3 µM	–	11.2 µM	16.2 µM	0.822 µM	1.02 µM	2.13 µM	0.28 µM	1.14 µM	1.37 µM	0.918 µM	3.49 µM
O=[N+]([O-])c1ccc(C2=NCCO2)cc1	> 100 µM	> 100 µM	> 100 µM	> 100 µM	> 100 µM	> 100 µM	–	> 100 µM	> 100 µM	> 100 µM	> 100 µM	> 100 µM	> 100 µM	> 100 µM	> 100 µM	> 100 µM	> 100 µM
CCN1CCN(CCC(=O)Nc2cccc(-n3cc(-c4ccncc4)c(-c4ccc(Cl)c(OC)c4)n3)c2)CC1	1.83 µM	1.13 µM	1.19 µM	2.37 µM	2.88 µM	2.31 µM	–	1.22 µM	2.63 µM	0.507 µM	0.34 µM	0.275 µM	0.433 µM	0.623 µM	0.864 µM	0.381 µM	1.27 µM
CCC(=C(c1ccc(OCCN2CCCCC2)cc1)c1ccc(OCCN2CCCCC2)cc1)c1ccc(Cl)cc1	5.3 µM	9.55 µM	> 16.7 µM	1.27 µM	> 16.7 µM	8.08 µM	–	> 16.7 µM	> 16.7 µM	2.83 µM	3.41 µM	7.72 µM	0.425 µM	> 16.7 µM	3.47 µM	0.762 µM	2.8 µM
CC1(C)N=C(N)N=C(N)N1c1ccc(OCCCNC(=O)Nc2ccc(S(=O)(=O)F)cc2)c(Cl)c1	13.3 µM	> 65.3 µM	> 100 µM	> 100 µM	> 100 µM	> 100 µM	–	> 100 µM	> 100 µM	0.146 µM	0.113 µM	0.79 µM	0.0376 µM	0.111 µM	5.11 µM	0.1 µM	0.832 µM
Cc1ccc(N)c(S)c1	30.6 µM	58.5 µM	33.5 µM	45.8 µM	7.83 µM	54.7 µM	–	33.8 µM	88.1 µM	–	–	–	–	–	–	–	–
C[N+]1([O-])C2CCC1CC(OC(=O)C(CO)c1ccccc1)C2 (configuration not stated)	> 100 µM	> 100 µM	> 100 µM	> 100 µM	> 100 µM	> 100 µM	–	> 100 µM	> 100 µM	–	–	–	–	–	–	–	–
COc1cc(/C=C/C(=O)c2cccc(-n3cc(-c4ccccc4)[nH]c3=O)c2)cc(OC)c1OC	2.69 µM	> 100 µM	2.52 µM	> 100 µM	10.7 µM	3.17 µM	–	1.85 µM	2.51 µM	1.4 µM	2.9 µM	0.958 µM	0.565 µM	2.09 µM	1.52 µM	0.662 µM	1.26 µM
O=C(O)/C=C\C(=O)Nc1ccc2c(c1)-c1ccccc1C2	> 100 µM	> 100 µM	> 100 µM	> 100 µM	> 100 µM	> 100 µM	–	> 100 µM	> 100 µM	–	–	–	–	–	–	–	–
CC(C)=CC[C@@H]1CC2(CC=C(C)C)C(=O)C(OC3(C(=O)c4ccccc4)C(=O)C4(CC=C(C)C)C[C@@H](CC=C(C)C)C(C)(C)C(CC=C(C)C)(C4=O)C3=O)(C(=O)c3ccccc3)C(=O)C(CC=C(C)C)(C2=O)C1(C)C (some centres not stated)	1.58 µM	2.44 µM	3.72 µM	50 µM	5.67 µM	3.77 µM	–	4.31 µM	3.09 µM	0.806 µM	1.06 µM	1.07 µM	1.67 µM	1.54 µM	1.4 µM	1.41 µM	1.21 µM
CC(C)(C)CC(C)(C)c1ccc(OCCO)cc1	7.63 µg/mL	31.6 µg/mL	11.1 µg/mL	> 75 µg/mL	16.7 µg/mL	16.9 µg/mL	–	28.1 µg/mL	19.7 µg/mL	0.89 µg/mL	1.81 µg/mL	1.21 µg/mL	1.43 µg/mL	6.38 µg/mL	2.39 µg/mL	10.6 µg/mL	7.57 µg/mL
Nc1ccc(/C=C/c2ccc3ncccc3c2)cc1	> 100 µM	> 100 µM	> 100 µM	> 100 µM	> 100 µM	> 100 µM	–	> 100 µM	> 100 µM	> 100 µM	1.52 µM	19.9 µM	> 100 µM	> 100 µM	> 100 µM	> 100 µM	> 100 µM
O=C1NN2CC(c3ccccc3)=NN=C2c2ccccc21	67.2 µM	56.8 µM	77.1 µM	42 µM	78.3 µM	> 100 µM	–	49 µM	36.2 µM	26.8 µM	19.9 µM	34.7 µM	0.507 µM	29.1 µM	59.1 µM	24.7 µM	15.6 µM
C=C(CO)C(=O)OC1CC(=C)C2CC(O)C(C)C2C2OC(=O)C(=C)C12 (configuration not stated)	50.9 µM	62.5 µM	45.8 µM	51.2 µM	32.7 µM	32.7 µM	–	53.9 µM	40.9 µM	–	–	–	–	–	–	–	–
COc1nc(NC2OC(COC(C)=O)C(OC(C)=O)C(OC(C)=O)C2OC(C)=O)c(N=CC=Nc2c(NC3OC(COC(C)=O)C(OC(C)=O)C(OC(C)=O)C3OC(C)=O)nc(OC)[nH]c2=O)c(=O)[nH]1 (configuration not stated)	> 100 µM	> 100 µM	> 100 µM	–	> 100 µM	> 100 µM	> 100 µM	> 100 µM	> 100 µM	–	–	–	–	–	–	–	–
C=CC1(C)CCC2C(=CCC3C2(C)CC(O)C(O)C3(C)COC2OC(CO)C(O)C(O)C2O)C1 (configuration not stated)	> 100 µM	> 100 µM	> 100 µM	> 100 µM	> 100 µM	> 100 µM	–	> 100 µM	> 100 µM	–	–	–	–	–	–	–	–
